Reference: ChEMBL document CHEMBL4002583, “Amino derivatives of platanic acid act as selective and potent inhibitors of butyrylcholinesterase” (Eur J Med Chem, 2017)

Tests used:
Acetylcholinesterase [1] = molecular target: T1, Acetylcholinesterase (Electrophorus electricus, UniProt O42275); assay: Competitive inhibition of electric eel AChE using acetylthiocholine iodide as substrate preincubated for 20 mins followed by substrate addition measured every 1 min for 30 mins by Dixon plot method
Acetylcholinesterase [2] = molecular target: T1, Acetylcholinesterase; assay: Uncompetitive inhibition of electric eel AChE using acetylthiocholine iodide as substrate preincubated for 20 mins followed by substrate addition measured every 1 min for 30 mins by Cornish-Bowden plot method
Cholinesterase [3] = molecular target: T2, Cholinesterase (Equus caballus, UniProt P81908); assay: Competitive inhibition of equine serum BChE using butyrylthiocholine iodide as substrate preincubated for 20 mins followed by substrate addition measured every 1 min for 30 mins by Dixon plot method
[4] = Selectivity ratio of Ki for electric eel AChE to Ki for equine serum BChE
Cholinesterase [5] = molecular target: T2, Cholinesterase; assay: Uncompetitive inhibition of equine serum BChE using butyrylthiocholine iodide as substrate preincubated for 20 mins followed by substrate addition measured every 1 min for 30 mins by Cornish-Bowden plot method
[6] = Selectivity ratio of Ki for equine serum BChE to Ki for electric eel AChE
[7] = Chemical stability in TRIS buffer at pH 8 measured over 2880 mins in presence of BChE by HPLC method; type: physicochemical; conditions: pH 8, 48 h
[8] = Chemical stability in TRIS buffer at pH 8 measured over 2880 mins by HPLC method; type: physicochemical; conditions: pH 8, 48 h
Acetylcholinesterase [9] = molecular target: Acetylcholinesterase (Homo sapiens, UniProt P22303); assay: Inhibition of […] using acetyl-(beta-methyl)thiocholine as substrate preincubated for 30 mins followed by substrate addition measured after 25 mins by spectrophotometric method
Cholinesterase [10] = molecular target: T3, Cholinesterase (Homo sapiens, UniProt P06276); assay: Inhibition of […] using S-butyrylthiocholine as substrate preincubated for 30 mins followed by substrate addition measured after 25 mins by spectrophotometric method
Cholinesterase [11] = molecular target: T3, Cholinesterase; assay: Inhibition of human serum BChE using butyrylthiocholine iodide as substrate by Ellman's method

T1 sequence (O42275 whole entry): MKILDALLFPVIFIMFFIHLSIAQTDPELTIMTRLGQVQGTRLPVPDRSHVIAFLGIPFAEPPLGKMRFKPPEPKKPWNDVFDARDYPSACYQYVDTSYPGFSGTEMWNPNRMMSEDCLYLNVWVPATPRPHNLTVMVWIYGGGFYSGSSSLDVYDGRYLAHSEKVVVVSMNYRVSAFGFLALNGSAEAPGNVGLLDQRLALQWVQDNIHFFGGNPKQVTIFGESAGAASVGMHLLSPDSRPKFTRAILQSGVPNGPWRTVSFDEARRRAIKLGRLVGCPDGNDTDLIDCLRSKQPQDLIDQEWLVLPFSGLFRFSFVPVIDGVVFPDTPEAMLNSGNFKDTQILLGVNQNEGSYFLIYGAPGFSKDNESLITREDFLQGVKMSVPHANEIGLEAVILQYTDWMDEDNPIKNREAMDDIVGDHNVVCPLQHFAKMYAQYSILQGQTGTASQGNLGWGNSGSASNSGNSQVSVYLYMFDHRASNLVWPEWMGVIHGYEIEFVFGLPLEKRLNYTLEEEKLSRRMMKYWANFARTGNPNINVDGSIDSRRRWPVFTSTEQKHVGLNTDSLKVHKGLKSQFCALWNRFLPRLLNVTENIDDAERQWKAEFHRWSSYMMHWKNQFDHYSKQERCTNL
T2 sequence (P81908 whole entry): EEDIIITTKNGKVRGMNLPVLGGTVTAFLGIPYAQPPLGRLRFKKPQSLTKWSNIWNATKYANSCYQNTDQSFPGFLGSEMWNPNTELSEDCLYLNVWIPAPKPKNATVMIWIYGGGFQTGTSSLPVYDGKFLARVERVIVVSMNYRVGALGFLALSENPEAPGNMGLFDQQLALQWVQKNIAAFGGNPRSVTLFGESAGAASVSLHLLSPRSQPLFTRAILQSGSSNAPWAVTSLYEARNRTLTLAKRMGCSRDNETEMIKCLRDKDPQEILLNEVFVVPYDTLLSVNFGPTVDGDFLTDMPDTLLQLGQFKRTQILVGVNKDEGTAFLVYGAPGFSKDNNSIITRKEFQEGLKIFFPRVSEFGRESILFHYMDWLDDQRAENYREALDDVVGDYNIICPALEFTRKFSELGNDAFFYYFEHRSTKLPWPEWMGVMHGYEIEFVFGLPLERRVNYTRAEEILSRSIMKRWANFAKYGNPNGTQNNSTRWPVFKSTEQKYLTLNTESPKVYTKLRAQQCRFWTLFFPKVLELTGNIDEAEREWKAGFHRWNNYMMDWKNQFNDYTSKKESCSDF
T3 sequence (P06276 whole entry): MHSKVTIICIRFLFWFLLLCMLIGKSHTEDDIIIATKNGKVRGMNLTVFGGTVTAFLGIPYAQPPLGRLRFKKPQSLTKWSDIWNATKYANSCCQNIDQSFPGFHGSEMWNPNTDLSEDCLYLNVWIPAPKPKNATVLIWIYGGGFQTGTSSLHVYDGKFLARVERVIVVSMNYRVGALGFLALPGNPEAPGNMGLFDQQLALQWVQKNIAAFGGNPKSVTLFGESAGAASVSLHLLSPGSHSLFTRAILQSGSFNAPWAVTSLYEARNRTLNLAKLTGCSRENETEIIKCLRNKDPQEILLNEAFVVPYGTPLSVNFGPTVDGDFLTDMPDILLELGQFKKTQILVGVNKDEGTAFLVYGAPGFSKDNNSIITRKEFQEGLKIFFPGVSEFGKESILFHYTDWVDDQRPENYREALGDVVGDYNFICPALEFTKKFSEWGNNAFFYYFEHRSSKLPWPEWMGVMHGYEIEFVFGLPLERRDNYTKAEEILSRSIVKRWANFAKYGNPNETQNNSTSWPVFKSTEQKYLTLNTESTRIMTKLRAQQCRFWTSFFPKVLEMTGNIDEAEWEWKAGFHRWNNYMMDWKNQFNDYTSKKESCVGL
Sequence of Acetylcholinesterase (Homo sapiens, UniProt P22303) (P22303 whole entry): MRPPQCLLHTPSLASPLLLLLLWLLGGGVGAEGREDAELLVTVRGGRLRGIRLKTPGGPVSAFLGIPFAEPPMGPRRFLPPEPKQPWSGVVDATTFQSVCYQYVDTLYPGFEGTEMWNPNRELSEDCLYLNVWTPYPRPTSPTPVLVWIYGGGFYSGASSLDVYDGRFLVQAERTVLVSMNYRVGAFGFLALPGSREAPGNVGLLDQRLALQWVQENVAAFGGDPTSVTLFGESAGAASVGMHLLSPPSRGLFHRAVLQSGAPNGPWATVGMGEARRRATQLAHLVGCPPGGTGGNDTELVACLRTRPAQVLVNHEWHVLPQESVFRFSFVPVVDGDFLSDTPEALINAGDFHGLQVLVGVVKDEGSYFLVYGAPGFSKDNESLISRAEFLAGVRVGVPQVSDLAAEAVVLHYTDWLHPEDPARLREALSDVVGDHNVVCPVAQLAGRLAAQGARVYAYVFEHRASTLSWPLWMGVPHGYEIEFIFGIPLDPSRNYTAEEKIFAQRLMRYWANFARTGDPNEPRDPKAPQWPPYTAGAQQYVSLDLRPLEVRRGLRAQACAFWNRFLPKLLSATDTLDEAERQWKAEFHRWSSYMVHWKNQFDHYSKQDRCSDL

| SMILES | Ki (Acetylcholinesterase [1]) | Ki (Acetylcholinesterase [2]) | Ki (Cholinesterase [3]) | Ratio Ki [4] | Ki (Cholinesterase [5]) | Ratio Ki [6] | Stability [7] | Stability [8] | IC50 (Acetylcholinesterase [9]) | IC50 (Cholinesterase [10]) | Ki (Cholinesterase [11]) |
| --- | --- | --- | --- | --- | --- | --- | --- | --- | --- | --- | --- |
| CC(=O)[C@@H]1CC[C@]2(C(=O)OCc3ccccc3)CC[C@]3(C)[C@H](CC[C@@H]4[C@@]5(C)CC[C@H](N)C(C)(C)[C@@H]5CC[C@]43C)[C@@H]12 | 13.4 µM | 76.6 µM | 0.56 µM | 24 | 3.5 µM |  |  |  |  |  |  |
| COC(=O)[C@]12CC[C@@H](C(C)=O)[C@@H]1[C@H]1CC[C@@H]3[C@@]4(C)CC[C@H](O)C(C)(C)[C@@H]4CC[C@@]3(C)[C@]1(C)CC2 | 0.76 µM |  | > 4 µM |  |  | > 5 |  |  |  |  |  |
| CC(=O)[C@@H]1CC[C@]2(C(=O)O)CC[C@]3(C)[C@H](CC[C@@H]4[C@@]5(C)CC[C@H](O)C(C)(C)[C@@H]5CC[C@]43C)[C@@H]12 [PLATANIC ACID] | 31.6 µM | 36.9 µM | > 50 µM |  |  | > 1.6 |  |  |  |  |  |
| COC(=O)[C@]12CC[C@@H]([C@H](C)NC(C)=O)[C@@H]1[C@H]1CC[C@@H]3[C@@]4(C)CC[C@H](OC(C)=O)C(C)(C)[C@@H]4CC[C@@]3(C)[C@]1(C)CC2 | 11.8 µM | 45.6 µM | > 40 µM |  |  | > 3.4 |  |  |  |  |  |
| CC(=O)[C@@H]1CC[C@]2(C(=O)NCCN)CC[C@]3(C)[C@H](CC[C@@H]4[C@@]5(C)CC[C@H](O)C(C)(C)[C@@H]5CC[C@]43C)[C@@H]12 | 7.18 µM | 9.71 µM | 8.37 µM |  | > 110 µM | 1.2 |  |  |  |  |  |
| COC(=O)[C@]12CC[C@@H]([C@H](C)N)[C@@H]1[C@H]1CC[C@@H]3[C@@]4(C)CC[C@H](OC(C)=O)C(C)(C)[C@@H]4CC[C@@]3(C)[C@]1(C)CC2 | > 40 µM | > 80 µM | 0.23 µM | > 173 | 3.89 µM |  |  |  |  |  |  |
| COC(=O)[C@]12CC[C@@H](/C(C)=N/OC(C)=O)[C@@H]1[C@H]1CC[C@@H]3[C@@]4(C)CC[C@H](OC(C)=O)C(C)(C)[C@@H]4CC[C@@]3(C)[C@]1(C)CC2 | > 15 µM |  | > 15 µM |  |  |  |  |  |  |  |  |
| CC(=O)O[C@H]1CC[C@]2(C)[C@H]3CC[C@@H]4[C@H]5[C@H](/C(C)=N/O)CC[C@]5(C(=O)O)CC[C@@]4(C)[C@]3(C)CC[C@H]2C1(C)C |  |  |  |  |  |  | Stable | Stable |  |  |  |
| CC(=O)[C@@H]1CC[C@]2(N)CC[C@]3(C)[C@H](CC[C@@H]4[C@@]5(C)CC[C@H](O)C(C)(C)[C@@H]5CC[C@]43C)[C@@H]12 | 20.9 µM | > 120 µM | 6.39 µM | 3.3 | 38.9 µM |  |  |  |  |  |  |
| COC(=O)[C@]12CC[C@@H](NC(C)=O)[C@@H]1[C@H]1CC[C@@H]3[C@@]4(C)CC[C@H](OC(C)=O)C(C)(C)[C@@H]4CC[C@@]3(C)[C@]1(C)CC2 | 14.1 µM |  | > 20 µM |  |  | > 1.4 |  |  |  |  |  |
| COC(=O)[C@]12CC[C@@H]([C@@H](C)NC(C)=O)[C@@H]1[C@H]1CC[C@@H]3[C@@]4(C)CC[C@H](OC(C)=O)C(C)(C)[C@@H]4CC[C@@]3(C)[C@]1(C)CC2 | > 4 µM |  | > 4 µM |  |  |  |  |  |  |  |  |
| CC(=O)[C@@H]1CC[C@]2(C(=O)OCc3ccccc3)CC[C@]3(C)[C@H](CC[C@@H]4[C@@]5(C)CCC(=O)C(C)(C)[C@@H]5CC[C@]43C)[C@@H]12 | 2.63 µM | 4.59 µM | > 10 µM |  |  | > 3.8 |  |  |  |  |  |
| C[C@@H](N)[C@@H]1CC[C@]2(CO)CC[C@]3(C)[C@H](CC[C@@H]4[C@@]5(C)CC[C@H](O)C(C)(C)[C@@H]5CC[C@]43C)[C@@H]12 | 53.1 µM | 104 µM | 0.14 µM | 378 | 1.89 µM |  |  |  |  |  |  |
| CC(=O)O[C@H]1CC[C@]2(C)[C@H]3CC[C@@H]4[C@H]5[C@H]([C@@H](C)N)CC[C@]5(C(=O)OCc5ccccc5)CC[C@@]4(C)[C@]3(C)CC[C@H]2C1(C)C | 8.51 µM | 17 µM | 0.01 µM | 851 | 0.4 µM |  |  |  |  |  |  |
| CC(=O)[C@@H]1CC[C@]2(C(=O)OCc3ccccc3)CC[C@]3(C)[C@H](CC[C@@H]4[C@@]5(C)CC[C@H](O)C(C)(C)[C@@H]5CC[C@]43C)[C@@H]12 | 0.59 µM | 4.06 µM | > 10 µM |  |  | > 17 |  |  |  |  |  |
| CC(=O)O[C@H]1CC[C@]2(C)[C@H]3CC[C@@H]4[C@H]5[C@H](C(C)=O)CC[C@]5(C(=O)NCCN)CC[C@@]4(C)[C@]3(C)CC[C@H]2C1(C)C | 3.06 µM | 6.83 µM | 11.9 µM |  | 17.1 µM | 3.9 |  |  |  |  |  |
| C[C@@H](N)[C@@H]1CC[C@]2(C(=O)OCc3ccccc3)CC[C@]3(C)[C@H](CC[C@@H]4[C@@]5(C)CC[C@H](O)C(C)(C)[C@@H]5CC[C@]43C)[C@@H]12 | 11 µM | 47.8 µM | 0.07 µM | 157 | 0.19 µM |  | Stable | Stable |  |  |  |
| CC(=O)O[C@H]1CC[C@]2(C)[C@H]3CC[C@@H]4[C@H]5[C@H](C(C)=O)CC[C@]5(C(N)=O)CC[C@@]4(C)[C@]3(C)CC[C@H]2C1(C)C | 8.16 µM | 10.9 µM | > 10 µM |  |  | > 1.2 |  |  |  |  |  |
| CC(C)c1ccc(NC(=O)Oc2ccc3c(c2)[C@]2(C)CCN[C@@H]2N3)cc1 |  |  |  |  |  |  |  |  | 0.11 µM | 0.001 µM | 0.000131 µM |
| CC(=O)O[C@H]1CC[C@]2(C)[C@H]3CC[C@@H]4[C@H]5[C@H]([C@@H](C)N)CC[C@]5(C(=O)O)CC[C@@]4(C)[C@]3(C)CC[C@H]2C1(C)C | 20.9 µM |  | 0.1 µM | 209 | 2.75 µM |  |  |  |  |  |  |
| CC(=O)O[C@H]1CC[C@]2(C)[C@H]3CC[C@@H]4[C@H]5[C@H](C(C)=O)CC[C@]5(C(=O)O)CC[C@@]4(C)[C@]3(C)CC[C@H]2C1(C)C | 9 µM |  | > 10 µM |  |  | > 1.1 |  |  |  |  |  |
| CC(=O)O[C@H]1CC[C@]2(C)[C@H]3CC[C@@H]4[C@H]5[C@H]([C@H](C)N)CC[C@]5(C(=O)OCc5ccccc5)CC[C@@]4(C)[C@]3(C)CC[C@H]2C1(C)C | 10.7 µM | 34.2 µM | 0.38 µM | 28 | 6.78 µM |  |  |  |  |  |  |
| CCC(=O)O/N=C(\C)[C@@H]1CC[C@]2(C(=O)OC)CC[C@]3(C)[C@H](CC[C@@H]4[C@@]5(C)CC[C@H](OC(C)=O)C(C)(C)[C@@H]5CC[C@]43C)[C@@H]12 | > 30 µM |  | > 30 µM |  |  |  |  |  |  |  |  |
| CC(=O)O[C@H]1CC[C@]2(C)[C@H]3CC[C@@H]4[C@H]5[C@H](C(C)=O)CC[C@]5(C(=O)OCc5ccccc5)CC[C@@]4(C)[C@]3(C)CC[C@H]2C1(C)C | 0.09 µM | 0.21 µM | 33.1 µM |  | > 400 µM | 368 |  |  |  |  |  |
| CC(=O)OC[C@]12CC[C@@H]([C@@H](C)N)[C@@H]1[C@H]1CC[C@@H]3[C@@]4(C)CC[C@H](OC(C)=O)C(C)(C)[C@@H]4CC[C@@]3(C)[C@]1(C)CC2 | 4.5 µM |  | 0.06 µM | 75 | 0.37 µM |  |  |  |  |  |  |
| CC(=O)[C@@H]1CC[C@]2(C(=O)OCc3ccccc3)CC[C@]3(C)[C@H](CC[C@@H]4[C@@]5(C)CC[C@@H](N)C(C)(C)[C@@H]5CC[C@]43C)[C@@H]12 | 20.3 µM | > 90 µM | 1.8 µM | 11 | 5.98 µM |  |  |  |  |  |  |
| COC(=O)[C@]12CC[C@@H]([C@@H](C)N)[C@@H]1[C@H]1CC[C@@H]3[C@@]4(C)CC[C@H](OC(C)=O)C(C)(C)[C@@H]4CC[C@@]3(C)[C@]1(C)CC2 | > 4 µM |  | 0.09 µM | > 44 | 0.05 µM |  |  |  |  |  |  |
